From patent publication US7417109B2, “Polymers for delivering nitric oxide in vivo” (Duke University, priority 1996, dated 2008)

Key:
[1] = cited from earlier work
[2] = Half-life and NO delivery in physiological solution (NO by method of Saville); type: physicochemical
Method: In addition, the half-lives for these compositions in physiological solution were measured. The half-life is time required for the composition to lose one half of its bound NO. The amount of NO in the composition is determined by the method of Saville, as described in Example 13.
The concentration of R—S—NO groups in a sample is based on the method reported in Saville, Analyst 83:620 (1958). By this method, R—S—NO groups are converted into an azo dye. The concentration of this dye is determined by measuring the absorbance at 540 nm (ε˜50,000 M^−1 cm^−1). The procedure is as follows:
A given volume (50 μl−1 m) of the sample to be assayed is added to an equivalent volume of solution A and solution B. The two samples are set aside for 5 minutes to allow formation of the diazonium salt, after which an equivalent volume of solution C is added to each mixture. Color formation, indicative of the azo dye product, is usually complete by 5 minutes. The sample absorbance is then read spectrophotometrically at 540 nm. The RSNO is quantified as the difference in absorbance between solution B and A. (i.e. B−A). In the event that the background nitrite concentration is high (i.e. increased background in A), the accuracy of the measurement can be increased by the addition of an equivalent volume of 0.5% ammonium sulfamate in acid (45 mM) 5 minutes prior to the addition of sulfanilamide. […]

## CC(C)(SN=O)C(N)C(=O)O (racemic) [S-nitroso-D,L-penicillamine]
[1]
  lifetime in physiological solution: no more than about an hour

## CC(C)(SN=O)[C@H](N)C(=O)O [S-nitroso-penicillamine]
[2]
  time able to deliver NO: no more than one

## N[C@@H](CSN=O)C(=O)O [S-nitrosocysteine]
[1]
  lifetime in physiological solution: no more than about an hour
